Assay results: US10160762B2, “6-alkyl dihydropyrazolopyrimidinone compounds as PDE2 inhibitors” (Merck Sharp & Dohme Corp., priority 2015, dated 2018)
Like-named read-outs stand apart in the source and are kept apart here.

Target: T1, human PDE2A1 (Homo sapiens, UniProt O00408)
T1 construct: GST; purchased BPS Bioscience (San Diego, Calif.) 60020; host or cells: insect cells
Assay: IMAP FP PDE assay, human PDE2A1
Format: biochemical
Method in brief: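 GST-tagged human PDE2A1 from insect cells; substrate 50 nM FAM-cAMP containing 1000 nM cGMP in Tris pH 7.2/MgCl2/DTT buffer, enzyme giving 20% conversion. 60 min at room temperature, IMAP binding reagent, fluorescence polarization read. Apparent Ki from FP readings using apparent KM 10,000 nM; ten-point 3-fold titrations.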

[1] = Lab A, read-out: Human PDE2 Ki (nM) Lab A
[2] = Lab B, read-out: Human PDE2 Ki (nM) Lab B

T1 sequence (O00408 1-920 isoform O00408-2): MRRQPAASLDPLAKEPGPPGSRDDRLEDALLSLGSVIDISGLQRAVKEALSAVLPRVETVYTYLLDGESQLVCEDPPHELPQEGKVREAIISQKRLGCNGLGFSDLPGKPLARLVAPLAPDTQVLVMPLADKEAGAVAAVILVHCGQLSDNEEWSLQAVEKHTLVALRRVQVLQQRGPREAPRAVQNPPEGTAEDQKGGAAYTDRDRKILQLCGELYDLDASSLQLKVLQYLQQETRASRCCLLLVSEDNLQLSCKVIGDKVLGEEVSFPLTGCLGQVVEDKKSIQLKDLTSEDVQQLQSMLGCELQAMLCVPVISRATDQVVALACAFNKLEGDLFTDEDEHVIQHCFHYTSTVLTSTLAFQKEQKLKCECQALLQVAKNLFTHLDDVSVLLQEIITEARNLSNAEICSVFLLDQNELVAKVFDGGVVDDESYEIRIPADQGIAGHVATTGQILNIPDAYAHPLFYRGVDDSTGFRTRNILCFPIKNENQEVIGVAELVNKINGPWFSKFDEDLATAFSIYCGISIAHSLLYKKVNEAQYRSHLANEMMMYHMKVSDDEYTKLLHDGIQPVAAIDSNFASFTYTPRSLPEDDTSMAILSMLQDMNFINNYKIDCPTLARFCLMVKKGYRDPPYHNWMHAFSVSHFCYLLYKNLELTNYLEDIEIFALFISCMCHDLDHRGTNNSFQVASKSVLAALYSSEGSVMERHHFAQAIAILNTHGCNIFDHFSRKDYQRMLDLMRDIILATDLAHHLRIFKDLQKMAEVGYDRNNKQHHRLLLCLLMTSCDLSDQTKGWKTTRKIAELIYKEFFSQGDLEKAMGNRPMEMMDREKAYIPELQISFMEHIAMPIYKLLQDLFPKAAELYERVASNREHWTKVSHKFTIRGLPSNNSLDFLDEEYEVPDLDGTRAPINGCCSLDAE

Compound	Ki [1] [nM]	Ki [2] [nM]
Cc1nn(C(C)c2ccc(C(F)(F)F)cc2)c2nc(-c3cnc4ccccc4n3)[nH]c(=O)c12 (stereo not drawn) [Example 50, 3-Methyl-6-quinoxalin-2-yl-1-{1-[4-(trifluoromethyl)phenyl]ethyl}-1,5-dihydro-4H-pyrazolo[3,4-d]pyrimidin-4-one]	47	–
Cc1nn(C(C)c2ccc(C(F)(F)F)cc2)c2nc(-c3ccccn3)[nH]c(=O)c12 (stereo not drawn) [Example 52, 3-Methyl-6-pyridin-2-yl-1-{1-[4-(trifluoromethyl)phenyl]ethyl}-1,5-dihydro-4H-pyrazolo[3,4-d]pyrimidin-4-one]	18	–
Cc1nc2c(c(CO)nn2[C@@H](C)c2ccc(C(C)(C)C)cc2)c(=O)[nH]1 [Example 157, (S)-1-(1-(4-tert-Butylphenyl)ethyl)-3-(hydroxymethyl)-6-methyl-1H-pyrazolo[3,4-d]pyrimidin-4(5H)-one]	–	1.1
Cc1nc2c(c(CO)nn2[C@H](c2ccc(C(C)(C)C)cc2)C(C)C)c(=O)[nH]1 [Example 159, (S)-1-(1-(4-tert-Butylphenyl)-2-methylpropyl)-3-(hydroxymethyl)-6-methyl-1H-pyrazolo[3,4-d]pyrimidin-4(5H)-one]	–	2
Cc1nc2c(c(CO)nn2[C@@H](c2ccc(C(C)(C)C)cc2)C(C)C)c(=O)[nH]1 [Example 160, (R)-1-(1-(4-tert-Butylphenyl)-2-methylpropyl)-3-(hydroxymethyl)-6-methyl-1H-pyrazolo[3,4-d]pyrimidin-4(5H)-one]	–	0.36
Cc1nc2c(c(C(F)F)nn2C(c2ccc(OC(F)(F)F)c(F)c2)C2CC2)c(=O)[nH]1 (stereo not drawn) [Example 193, 1-(Cyclopropyl(3-fluoro-4-(trifluoromethoxy)phenyl)methyl)-3-(difluoromethyl)-6-methyl-1H-pyrazolo[3,4-d]pyrimidin-4(5H)-one]	–	1.8
COc1ccc(C(=O)c2nc3c(c(C(F)F)nn3C(C)c3ccc(C(F)(F)F)cc3)c(=O)[nH]2)cc1OC (stereo not drawn) [Example 198, 3-(Difluoromethyl)-6-(3,4-dimethoxybenzoyl)-1-(1-(4-(trifluoromethyl)phenyl)ethyl)-1H-pyrazolo[3,4-d]pyrimidin-4(5H)-one]	–	21
Cc1nc2c(c(CF)nn2C2(c3ccc(C(F)(F)F)cc3)CCC2)c(=O)[nH]1 [Example 202, 3-(Fluoromethyl)-6-methyl-1-(1-(4-(trifluoromethyl)phenyl)cyclobutyl)-1H-pyrazolo[3,4-d]pyrimidin-4(5H)-one]	–	2.9
Cc1nc2c(c(CCl)nn2C(c2ccc(C(F)(F)F)cc2)C2CC2)c(=O)[nH]1 (stereo not drawn) [Example 232, 3-(chloromethyl)-1-(cyclopropyl(4-(trifluoromethyl)phenyl)methyl)-6-methyl-1H-pyrazolo[3,4-d]pyrimidin-4(5H)-one]	0.27	0.7
CCC(CCCc1ccccc1)n1nc(C)c2c(=O)[nH]c(C)nc21 (stereo not drawn) [Example 338, 1-(1-ethyl-4-phenylbutyl)-3,6-dimethyl-1,5-dihydro-4H-pyrazolo[3,4-d]pyrimidin-4-one]	73	–

Results, then the molecule that gave them:

Ki [1] [nM]	Ki [2] [nM]	Compound
50	–	Cc1nn(C(C)c2ccc(C(F)(F)F)cc2)c2nc(CF)[nH]c(=O)c12 (stereo not drawn) [Example 51, 6-(Fluoromethyl)-3-methyl-1-{1-[4-(trifluoromethyl)phenyl]ethyl}-1,5-dihydro-4H-pyrazolo[3,4-d]pyrimidin-4-one]
17	–	Cc1nn(C(C)c2ccc(C(F)(F)F)cc2)c2nc(-c3cnn(C)c3)[nH]c(=O)c12 (stereo not drawn) [Example 53, 3-Methyl-6-(1-methyl-1H-pyrazol-4-yl)-1-{1-[4-(trifluoromethyl)phenyl]ethyl}-1,5-dihydro-4H-pyrazolo[3,4-d]pyrimidin-4-one]
12	–	Cc1nc(-c2nc3c(c(C)nn3C(C)c3ccc(C(F)(F)F)cc3)c(=O)[nH]2)c(C)o1 (stereo not drawn) [Example 54, 6-(2,5-Dimethyl-1,3-oxazol-4-yl)-3-methyl-1-{1-[4-(trifluoromethyl)phenyl]ethyl}-1,5-dihydro-4H-pyrazolo[3,4-d]pyrimidin-4-one]
–	3.1	Cc1nc2c(c(CO)nn2[C@@H](C)c2ccc(OC(F)(F)F)cc2)c(=O)[nH]1 [Example 158, (S)-3-(Hydroxymethyl)-6-methyl-1-(1-(4-(trifluoromethoxy)phenyl)ethyl)-1H-pyrazolo[3,4-d]pyrimidin-4(5H)-one]
~5.9	9.5	Cc1nc2c(c(C(F)F)nn2C(C)c2ccc(C(F)(F)F)cc2)c(=O)[nH]1 (stereo not drawn) [Example 166, 3-(Difluoromethyl)-6-methyl-1-{1-[4-(trifluoromethyl)phenyl]ethyl}-1,5-dihydro-4H-pyrazolo[3,4-d]pyrimidin-4-one]
–	2.6	Cc1nc2c(c(CF)nn2C(c2ccc(C(F)(F)F)cc2)C(F)(F)F)c(=O)[nH]1 (stereo not drawn) [Example 201, 3-(Fluoromethyl)-6-methyl-1-(2,2,2-trifluoro-1-(4-(trifluoromethyl)phenyl)-ethyl)-1H-pyrazolo[3,4-d]pyrimidin-4(5H)-one]
8.3	17	Cc1ccc(C(C)n2nc(CF)c3c(=O)[nH]c(C)nc32)cc1 (stereo not drawn) [Example 203, 3-(Fluoromethyl)-6-methyl-1-(1-p-tolylethyl)-1H-pyrazolo[3,4-d]pyrimidin-4(5H)-one]
2.7	–	Cc1nc2c(c(CF)nn2C(C)c2ccc(C(F)(F)F)cc2)c(=O)[nH]1 (stereo not drawn) [Example 204, 3-(Fluoromethyl)-6-methyl-1-{1-[4-(trifluoromethyl)phenyl]ethyl}-1,5-dihydro-4H-pyrazolo[3,4-d]pyrimidin-4-one]
–	3.4	COCc1nc2c(c(CF)nn2C(C)c2ccc(C(F)(F)F)cc2)c(=O)[nH]1 (stereo not drawn) [Example 205, 3-(Fluoromethyl)-6-(methoxymethyl)-1-{1-[4-(trifluoromethyl)phenyl]ethyl}-1,5-dihydro-4H-pyrazolo[3,4-d]pyrimidin-4-one]
1.5	3.6	Cc1nc2c(c(CF)nn2C(C)c2ccc(C(F)(F)F)c(F)c2)c(=O)[nH]1 (stereo not drawn) [Example 230, 1-(1-(3-Fluoro-4-(trifluoromethyl)phenyl)ethyl)-3-(fluoromethyl)-6-methyl-1H-pyrazolo[3,4-d]pyrimidin-4(5H)-one]
0.39	0.97	Cc1nc2c(c(CF)nn2C(c2ccc(C(F)(F)F)cc2)C2CC2)c(=O)[nH]1 (stereo not drawn) [Example 231, 1-(cyclopropyl(4-(trifluoromethyl)phenyl)methyl)-3-(fluoromethyl)-6-methyl-1H-pyrazolo[3,4-d]pyrimidin-4(5H)-one]
70	–	Cc1nc2c(c(C(C)(C)O)nn2C(C)c2ccc(C(F)(F)F)cc2)c(=O)[nH]1 (stereo not drawn) [Example 326, 3-(1-Hydroxy-1-methylethyl)-6-methyl-1-{1-[4-(trifluoromethyl)phenyl]ethyl}-1,5-dihydro-4H-pyrazolo[3,4-d]pyrimidin-4-one]
92	–	Cc1nc2c(c(C(O)C(F)(F)F)nn2C(C)c2ccc(C(F)(F)F)cc2)c(=O)[nH]1 (stereo not drawn) [Example 327, 6-Methyl-3-(2,2,2-trifluoro-1-hydroxyethyl)-1-{1-[4-(trifluoromethyl)phenyl]ethyl}-1,5-dihydro-4H-pyrazolo[3,4-d]pyrimidin-4-one]
~11	31	Cc1nc2c(c(C(C)O)nn2C(C)c2ccc(C(F)(F)F)cc2)c(=O)[nH]1 (stereo not drawn) [Example 328, 3-(1-Hydroxyethyl)-6-methyl-1-{1-[4-(trifluoromethyl)phenyl]ethyl}-1,5-dihydro-4H-pyrazolo[3,4-d]pyrimidin-4-one]
